We go through 17 compounds from ChEMBL document CHEMBL4024786, “In Silico Fragment-Based Design Identifies Subfamily B1 Metallo-β-lactamase Inhibitors” (J Med Chem, 2018).

The structures appear in SMILES notation. pIC50, pKd: −log10 of the molar value. The source made the active and inactive calls. No cut-off for these calls is given here.

In series [1] the test system is Escherichia coli str. K-12 substr. MG1655. Description: Inhibition of NDM-1 in Escherichia coli MG1655 assessed as potentiation of meropenem induced antibacterial activity by measuring meropenem MIC at 100 ug/ml after 18 to 24 hrs by broth microdilution method (reference value: >128 ug/ml).
Series [2] in a line: Inhibition of recombinant bacterial VIM-2 expressed in Escherichia coli BL21 (DE3) cells using FC4 as substrate preincubated for 10 mins prior to substrate addition in presence of Triton X-100 by fluorescence-based assay. Set-up: species or system Bacteria.
Series [3] can be described thus: Inhibition of recombinant bacterial NDM-1 expressed in Escherichia coli BL21 (DE3) cells using imipenem as substrate in presence of Triton X-100 by spectrophotometric analysis. Further details: species or system Bacteria.
A short description of series [4]: Inhibition of recombinant bacterial IMP-1 expressed in Escherichia coli BL21 (DE3) cells using FC4 as substrate preincubated for 10 mins prior to substrate addition in presence of Triton X-100 by fluorescence-based assay. Set-up: species or system Bacteria.
For series [5], the target named is Metallo-beta-lactamase type 2 (Klebsiella pneumoniae) (UniProt C7C422). Description: Inhibition of NDM-1 in Klebsiella pneumoniae ATCC 5055 assessed as potentiation of meropenem induced antibacterial activity by measuring meropenem MIC at 100 ug/ml after 18 to 24 hrs by broth microdilution method (reference value: >128 ug/ml).
Series [6] is described as follows: Inhibition of recombinant bacterial Bc2 expressed in Escherichia coli BL21 (DE3) cells using FC5 as substrate preincubated for 10 mins prior to substrate addition by fluorescence-based assay. Set-up: species or system Bacteria.
Series [7] is described as follows: Inhibition of recombinant bacterial SPM-1 expressed in Escherichia coli BL21 (DE3) cells using FC5 as substrate preincubated for 10 mins prior to substrate addition by fluorescence-based assay. Further details: species or system Bacteria.
The test system of series [8] is Bacteria. Description: Binding affinity to recombinant bacterial VIM-2 expressed in Escherichia coli BL21 (DE3) cells at 50 uM in presence of 4-(2,3-dichlorophenyl)-2-(sulfonylmethyl)benzoic acid by NMR method.
The target in series [9] is T1, 5' exonuclease Apollo (Homo sapiens, UniProt Q9H816).
T1 sequence (Q9H816 whole entry): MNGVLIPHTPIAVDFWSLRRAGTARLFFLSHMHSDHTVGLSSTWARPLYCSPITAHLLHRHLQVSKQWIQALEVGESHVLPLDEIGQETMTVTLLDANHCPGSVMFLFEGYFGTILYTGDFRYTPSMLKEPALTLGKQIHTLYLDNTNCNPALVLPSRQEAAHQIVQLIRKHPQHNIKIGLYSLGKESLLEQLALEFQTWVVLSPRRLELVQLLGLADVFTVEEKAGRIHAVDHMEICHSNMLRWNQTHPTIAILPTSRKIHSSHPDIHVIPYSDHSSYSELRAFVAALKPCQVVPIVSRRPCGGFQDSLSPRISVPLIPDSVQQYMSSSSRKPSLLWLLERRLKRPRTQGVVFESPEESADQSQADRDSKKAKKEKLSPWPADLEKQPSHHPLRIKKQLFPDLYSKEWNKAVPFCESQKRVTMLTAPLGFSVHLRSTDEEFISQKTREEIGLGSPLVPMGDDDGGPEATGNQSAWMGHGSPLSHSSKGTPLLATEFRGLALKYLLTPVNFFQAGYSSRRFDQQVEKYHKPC
Description: Inhibition of human DCLRE1B.

Series [10] in a line: Aqueous solubility of the compound in phosphate buffer at pH 7.0. The series is classed as physicochemical.
Series [11] has as its system Liver. Put plainly: Drug metabolism in human liver microsomes. Type of series: ADME, microsome.
The target in series [12] is Beta-lactamase TEM (Bacteria, UniProt P62593). Description: Inhibition of recombinant N-terminal His-tagged bacterial Escherichia coli TEM-1 (24 to 286 residues) expressed in Escherichia coli BL21 (DE3) cells using FC5 as substrate preincubated up to 360 mins prior to substrate addition by fluorescence-based assay.
In series [13] the test system is Pseudomonas aeruginosa PAO1. Put plainly: Inhibition of recombinant Psedomonas aeruginosa PAO1 N-terminal His-tagged AmpC expressed in Escherichia coli BL21 (DE3) cells using FC5 as substrate preincubated up to 360 mins prior to substrate addition in presence or absence of Triton X-100 by fluorescence-based assay.
Series [14] has as its target Beta-lactamase OXA-10 (Pseudomonas aeruginosa, UniProt P14489). Description: Inhibition of recombinant Pseudomonas aeruginosa OXA-10 expressed in Escherichia coli BL21 (DE3) cells using FC5 as substrate preincubated up to 360 mins prior to substrate addition by fluorescence-based assay.
The nature of series [15]: Binding affinity to recombinant bacterial VIM-2 expressed in Escherichia coli BL21 (DE3) cells by NMR method. Set-up: species or system Bacteria.

Metallo-beta-lactamase type 2 (Klebsiella pneumoniae), sequence (C7C422 whole entry): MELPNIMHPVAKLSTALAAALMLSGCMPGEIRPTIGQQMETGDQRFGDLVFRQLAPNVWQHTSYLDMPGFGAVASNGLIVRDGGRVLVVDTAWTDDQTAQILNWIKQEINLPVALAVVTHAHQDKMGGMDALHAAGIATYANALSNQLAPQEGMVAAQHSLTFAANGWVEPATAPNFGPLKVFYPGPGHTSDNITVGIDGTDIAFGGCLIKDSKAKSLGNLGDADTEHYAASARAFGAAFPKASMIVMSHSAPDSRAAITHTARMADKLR
Beta-lactamase TEM, sequence (P62593 whole entry, the tested form may be a part): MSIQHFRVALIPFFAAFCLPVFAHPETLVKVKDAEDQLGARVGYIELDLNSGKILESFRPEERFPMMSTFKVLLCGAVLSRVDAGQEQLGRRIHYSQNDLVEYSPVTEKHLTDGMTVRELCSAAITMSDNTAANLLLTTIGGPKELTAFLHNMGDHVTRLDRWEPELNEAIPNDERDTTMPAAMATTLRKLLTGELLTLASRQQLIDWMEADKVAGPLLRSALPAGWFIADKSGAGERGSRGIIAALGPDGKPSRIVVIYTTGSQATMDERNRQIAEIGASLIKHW
Beta-lactamase OXA-10, sequence (P14489 whole entry): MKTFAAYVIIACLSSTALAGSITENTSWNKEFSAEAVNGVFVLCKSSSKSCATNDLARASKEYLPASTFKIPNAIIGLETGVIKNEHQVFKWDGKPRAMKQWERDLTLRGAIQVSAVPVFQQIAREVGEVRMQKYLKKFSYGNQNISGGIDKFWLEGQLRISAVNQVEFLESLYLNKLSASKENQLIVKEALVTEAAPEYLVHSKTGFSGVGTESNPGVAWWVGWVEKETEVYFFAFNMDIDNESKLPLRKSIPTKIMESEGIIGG

In the case of `CCOc1cccc(-c2ccc(C(=O)O)c(CS)c2)c1`, the MIC was 64 µg/mL in [1] and 16 µg/mL in [5]. Also, the pIC50 was 6.74 in series [2], 5.12 in series [3] and 6.49 in [4].
As to `O=C(O)c1ccc(-c2ccc(Cl)cc2)cc1CS`, the pIC50 was 7.00 in series [2]; 5.11 to 6.11 in series [6]; 6.38 in series [3]; 7.22 in [4]; 5.11 to 6.11 in series [7].
With `O=C(O)c1ccc(-c2cc(C(F)(F)F)cc(C(F)(F)F)c2)cc1CS`, the MIC in series [1] and in [5] was more than 128 µg/mL each time. For the same compound, the negative logarithm of the IC50 (pIC50) in [2] is 6.35; in series [3], 4.36; in [4] it was 5.76. Further, the outcome in series [8] was inactive.
As to `O=C(O)c1ccc(-c2ccsc2)cc1CS`, the MIC amounted to 16 µg/mL in series [1] and 8 µg/mL in [5]. Also, the results for the pIC50 in [2], in series [3] and in [4] were 6.77, 5.17 and 6.74, respectively.
As for `O=C1SCc2cc(-c3ccccc3)ccc21`, the pIC50 in [2] was less than 4.00.
Take `O=C(O)c1ccc(-c2ccccc2)cc1CS`: the values for the MIC in series [1] and in series [5] were 16 µg/mL and 32 µg/mL, respectively. For the same compound, the pIC50 in series [2] was 6.64; in series [9], 3.83; in series [3], 5.25; in series [4], 6.64. Besides, the solubility entry in series [10] is recorded as “Soluble”. The Drug metabolism result in series [11] is “Metabolite_Detected”.
Consider `CCc1ccc(-c2ccc(C(=O)O)c(CS)c2)cc1`, for which the MIC in series [1] came to 32 µg/mL; in series [5], 64 µg/mL. The pIC50 in series [2] was 7.00; in series [3], 6.24; in [4], 7.30.
For `O=C(O)c1ccc(-c2ccco2)cc1CS`, the MIC in series [1] amounted to 32 µg/mL; in series [5], 64 µg/mL. Also, the pIC50 in series [2] was 6.44; in [3] it was 4.99; in series [4] it was 6.41.
In the case of `O=C(O)Cc1ccccc1S`, the pIC50 in series [2] is less than 4.00.
In the case of `O=C(O)c1ccc(-c2ccc(F)cc2)cc1CS`, the pIC50 in series [12] is 4.48; in series [2], 6.64; in series [6] it was 5.11 to 6.11; in series [3], 6.15; in [4], 6.52; in [7] it was 5.11 to 6.11.
Regarding `O=C(O)c1ccc(-c2cccc(Cl)c2)cc1CS`, the pIC50 in series [2] was 7.15; in [9], 3.57; in series [6] it was 5.11 to 6.11; in series [3] it was 6.51; in series [4], 6.85; in [7], 5.11 to 6.11.
Regarding `O=C(O)c1ccc(-c2cccc(Cl)c2Cl)cc1CS`, the pIC50 in series [12] was 5.26; in series [14], 4.43; in [2] it was 7.40; in series [3] it was 5.94; in series [4], 6.43. In addition, the inhibition result in series [13] is “Active”. Further, the pKd in series [15] was more than 6.00.
As for `O=C(O)c1ccc(-c2ccccc2Cl)cc1CS`, the inhibition entry in series [13] is “Active”. The pIC50 in [2] is 6.74; in series [6] it was 5.11 to 6.11; in series [3] it was 5.55; in series [4], 6.52; in [7], 5.11 to 6.11.
In the case of `O=C(O)c1ccc(-c2ccc3ccccc3c2)cc1CS`, the MIC in series [1] and in series [5] was 32 µg/mL throughout. Also, the figures for the negative-log IC50 (pIC50) in series [2], in series [3] and in [4] were 7.15, 5.62 and 6.66, respectively.
As to `O=C(O)c1ccc(-c2ccccc2C(F)(F)F)cc1CS`, the negative logarithm of the IC50 (pIC50) in [2] was 6.82; in [3] it was 5.05; in series [4] it was 6.32.
Take `O=C(O)c1ccc(Br)cc1CS`: the MIC was determined as 32 µg/mL in series [1] and 64 µg/mL in series [5]. Further, the pIC50 in series [2] is 6.77; in series [3], less than 4.00; in series [4], 6.10.
Consider `O=C(O)c1ccc(-c2cccc(F)c2)cc1CS`, for which the pIC50 is 6.70 in series [2]; 3.73 in [9]; 5.11 to 6.11 in series [6]; 6.23 in [3]; 6.41 in series [4]; 5.11 to 6.11 in [7].
